These results are taken from patent publication US9610249B2, “Dosage and administration for preventing cardiotoxicity in treatment with ERbB2-targeted immunoliposomes comprising anthracycline chemotherapeutic agents” (MERRIMACK PHARMACEUTICALS, INC., priority 2010, dated 2017).

For series [1], the system named is iPSd cardiomyocytes. The series is described as follows: Uptake of liposomes in cardiomyocytes (HPLC). The format is cell-based, human. The note with it: iPSd cardiomyocytes (approximately 200,000 HER2 receptors per cell), 15.0 μg/ml dox equiv. The method, then:
(§1) iPSd cardiomyocytes are plated per the manufacturer's instructions (Cell Dynamics International Cat #CMC-100-110-001) in a 24-well tissue culture plate at 250,000 cells/well. Two days later, the 0.5 ml of media in the wells is removed and replaced with 0.5 ml of 15.0 μg/ml (dox equiv.) of MM-302, PLD or free doxorubicin. The plates are swirled in a “figure 8 fashion” 20 times to maximize exposure of the cells to the liposomes. Cells are incubated with MM-302, PLD or free doxorubicin for the indicated time period after which the media are removed and the cells are washed once with 0.5 ml of PBS. The PBS is removed and 0.5 ml of 0.05% trypsin is added to each well. The cells are monitored, and once detachment begins, 0.5 ml of medium containing FBS is added to each well to inactivate the trypsin. The cells are collected and placed in microcentrifuge tubes. The cells are spun at 1,500 rpm for 5 minutes at 4° C. […] Samples are run on the HPLC machine and concentration per sample is determined by relating values to a doxorubicin standard curve.
(§2) To determine if the level of HER2 expression on cardiomyocytes is sufficient to induce uptake of MM-302, total cellular doxorubicin was quantified by HPLC following treatment of ESCd (FIG. 4A) and iPSd (FIG. 4B) cardiomyocytes.

For another series, the system named is ESCd cardiomyocytes. Put plainly: Uptake of liposomes in cardiomyocytes (HPLC). The format is cell-based, human. The note with it: ESCd cardiomyocytes (approximately 70,000 HER2 receptors per cell), 15.0 μg/ml dox equiv. How it is done:
as §1, §2

For a further series, the system named is BT474-M3 cells. The series is described as follows: Binding and internalization into HER2 over-expressing tumor cells (total and nuclear doxorubicin). The format is cell-based, human. The note with it: BT474-M3 (1.7×10^6 HER2/cell), 15 μg/ml, up to 3 h.
For a further series, the system named is cleaved PARP (cPARP). The format is cell-based. The method, then: (§3) Cardiomyocytes are treated as described above. Cells are fixed using 3.7% formaldehyde, washed twice with PBS containing 0.1% Tween-20 (PBS-T), and permeabilized with methanol. Cells are blocked using a 1:1 mixture of LI-COR® Odyssey® Blocking Buffer (Lincoln, Nebr.) and PBS-T for 1 h at room temperature (RT). Cells are stained with a 1:400 dilution of the indicated primary antibody from Cell Signaling Technology (Beverly, Mass.) and incubated shaking at 4° C. overnight. Cells are washed and incubated with a 1:2,000 dilution of the fluorescently labeled secondary antibody for 1 h at RT. Cells are stained with a 1:10,000 dilution of Hoechst 33342 and 1:1,000 dilution of Whole Cell Stain from Pierce Protein Research Products (Rockford, Ill.) for 30 min at RT to allow visualization of DNA and the whole cell, respectively. Plates are scanned using the Applied Precision Instruments ArrayWorx® High Content Scanner (Issaquah, Wash.) with a 10× objective for Hoechst 33342/Whole Cell Stain (460 nm), doxorubicin (595 nm), and APC/DiI5 (657 nm). Images are analyzed using the software ImageRail (as described in Millard et al., Nat Methods. 2011; 8:487-92). An intensity threshold is established for nuclear and whole cell signals. This threshold is then applied to all images and used to segment individual cells. […]

For series [2] the following is noted: patients; cited from earlier work.
The test system of series [3] is Troponin I (iPSd cardiomyocytes).
Experimental: 15,000 iPSd (iCELL®) cardiomyocytes (Cellular Dynamics International, Madison Wis.) cells are plated per the manufacturer's protocol. […] The supernatant is collected and analyzed using a human Troponin I ELISA (Catalog #: GWB-83A61F, Genway Biotech, San Diego Calif.) per the manufacturer's protocol. A PrestoBlue® Cell Viability Assay (Catalog #: A-13261, Invitrogen, Grand Island, N.Y.) is performed on the remaining cells in 100 μl per the manufacturer's protocol.
The test system of series [4] is iPSd cardiomyocytes. In kind it is cell-based, human. From the text: Exposure to low levels of doxorubicin can be cytotoxic.
Series [5] can be described thus: Nuclear doxorubicin in heart sections (confocal microscopy and image analysis). The note with it: 3 mg/kg dox equiv. i.v. How it is done: (§4) Mice are randomized into 4 groups that received a single intravenous (i.v.) dose of either PBS, doxorubicin, MM-302-DiI5 or PLD-DiI5 (all at 3 mg/kg), respectively. Mice (n=4/time point/group) are sacrificed at 0.5, 4, 24 and 96 h (doxorubicin) or 168 h (MM-302-DiI5 and PLD-DiI5) after the single dose. Five minutes before sacrificing, mice are injected i.v. with 100 μl of FITC-lectin, to label the vasculature.

The test system of the next series is phospho-HSP27. In kind it is cell-based. How it is done: as §3
A further series has as its system gamma-H2AX. In kind it is cell-based, human. How it is done:
as §3

Series [6] can be described thus: Biodistribution of doxorubicin in heart tissue of NCI-N87 tumor bearing mice (HPLC). The note with it: 3 mg/kg dox equiv. i.v. The method, then: 5-7-week-old female nude mice are purchased from Charles River Laboratories or Taconic Farms, Inc (NCr nude mice). Unless otherwise indicated, mice are inoculated with BT474-M3 breast cancer cells or NCI-N87 gastric cancer cells (NCI-DTP, 10×10^6 cells in 100 μl RPMI) into the right dorsal flank of the mice (subcutaneous injection, s.c.). When the tumors reach an average volume of ˜200 mm^3, studies are performed as described below.
as §4
Heart tissues are weighed and disaggregated with 1 mL H2O using a TissueLyser™ (Qiagen) for 3 min. 100 μl of the homogenate is then transferred into a new tube and 900 μl of 1% acetic acid/methanol is added. For the cultured cells, cells are treated with drug, as described above, trypsinized and lysed using 1.0% acetic acid in methanol. Lysates are vortexed for 10 sec. and placed at −80° C. for 1 h. Samples are spun at room temperature (RT) for 10 min at 10,000 RPM. Supernatants and doxorubicin standards are analyzed by HPLC (Dionex) using a C18 reverse phase column (Synergi™ POLAR-RP® 80 Å, 250×4.60 mm 4 μm column). Doxorubicin is eluted running a gradient from 30% acetonitrile; 70% 0.1% trifluoroacetic acid (TFA)/H2O to 55% acetonitrile; 45% 0.1% TFA/H2O during a 7 min span at a flow rate of 1.0 ml/min. The doxorubicin peak is detected at 6.5 min using an in-line fluorescence detector excited at 485 nm, and emitting at 590 nm.
The macro-level biodistributions of MM-302 (square), PLD (UT-PLD, triangle) and doxorubicin (free dox, circle) were compared in mouse heart tissue (FIG. 7A), human xenograft tumor tissue (FIG. 7B) and paw tissue (FIG. 7C) in NCI-N87 tumor bearing mice inoculated as described above. Mice (n=4/time point/group) were injected i.v. with MM-302, PLD, or free doxorubicin (all at 3 mg/kg dox equiv.) and hearts were collected at 0.5, 4, 24, and 96 h (for dox) or 168 h (for MM-302 and PLD) post injection and doxorubicin quantified by HPLC (FIG. 7A).

In another series the test system is phospho-p53. The series is described as follows: High-content analysis of cell stress in cardiomyocytes. In kind it is cell-based, human. The note with it: ESCd cardiomyocytes, 3 h treatment, 24 h fresh media. The method, then: as §3
For the next series, the system named is phospho-AKT (pAKT). Put plainly: Signaling in iPS-derived cardiomyocytes. In kind it is cell-based, human. The note with it: 24 hours pretreatment. How it is done: (§5) Cells are stained and imaged using high content microscopy as described above for (A) pAKT and (B) pERK following a10 minute stimulation with 10 nM and 5 nM of heregulin, respectively. The following primary antibodies are used at a 1:400 dilution in blocking buffer: pERK antibody—Cell Signaling Technology (CST—Danvers Mass.)—Catalog 9106L (Phospho-p44/42 MAPK (Erk1/2) (Thr202/Tyr204) (E10) Mouse mAb #9106); pAKT antibody—CST—Catalog 4060L (Phospho-Akt (Ser473) (D9E) XP™ Rabbit mAb #4060). Secondary antibodies are Anti-mouse IgG (H+L), F(ab′)2 Fragment (Alexa Fluor® 647 Conjugate)—CST—Catalog 4410; Anti-rabbit IgG (H+L), F(ab′)2 Fragment (Alexa Fluor® 647 Conjugate)—CST—Catalog 4414. Whole cell stain and DNA stain (Hoechst 33342) are used as described above. Images are analyzed and individual cells are segmented on the basis of Hoechst 33342 nuclear staining. Single cell signal intensity for each stain is quantified and represented as the mean relative intensity of individual cells.
(§6) After stimulation with 10 nM (FIG. 6A) and 5 nM (FIG. 6B) of heregulin (HRG) for 10 min, the levels of phospho-AKT (pAKT, FIG. 6A) and phospho-ERK (pERK, FIG. 6B) were measured by high content microscopy as described above.

A further series deals with phospho-ERK (pERK). The series is described as follows: Signaling in iPS-derived cardiomyocytes. The format is cell-based, human. The note with it: 24 hours pretreatment. The method, then: as §5, §6

Regarding `COc1cccc2c1C(=O)c1c(O)c3c(c(O)c1C2=O)C[C@@](O)(C(=O)CO)C[C@@H]3O[C@H]1C[C@H](N)[C@H](O)[C@H](C)O1` [doxorubicin, Doxorubicin], in the series with iPSd cardiomyocytes [1], the “total cellular doxorubicin (uptake)” value is on record as “doxorubicin accumulation in all cells”. In the series on ESCd cardiomyocytes, the “total cellular doxorubicin (uptake)” value is “doxorubicin accumulation in all cells”. Further, the “total cell binding and nuclear doxorubicin accumulation” value in the series with BT474-M3 cells was “freely enter cells and accumulate in the nucleus”. Besides, the “nuclear cleaved PARP (cPARP) at 5.0 μg/ml” value in the series with cleaved PARP (cPARP) is on record as “increase in nuclear cleaved PARP”. In series [2], the “cumulative doxorubicin exposure that increases the potential for cardiomyopathy and heart failure” value is on record as “above 550 mg/m^2”. Moreover, in series [3], the “Troponin I in supernatant” value is “marked increase of Troponin I”. For the same molecule, the “effect on cardiomyocyte viability” value with iPSd cardiomyocytes [4] is “marked decrease in viability”. For the same molecule, the “nuclei positive for doxorubicin in heart tissue at 0.5 h” value in series [5] (0.5 h) was “about 50%”. Moreover, in series [5] (4 h), the “nuclei positive for doxorubicin in heart tissue at 4 h” value is given as 23%. Further, the “nuclei positive for doxorubicin in heart tissue at 24 h” value in [5] (24 h) is listed as “returned to basal levels”. For the same molecule, the phospho-HSP27 entry in the series on phospho-HSP27 is “dose-dependent increase”. Moreover, the “nuclear gamma-H2AX” value with gamma-H2AX was “dose-dependent increase in nuclear gamma-H2AX”. In series [6], the “clearance of doxorubicin from the heart tissue” value is “faster compared to MM-302 and PLD”; the “time of peak doxorubicin exposure in the heart” value is 0.5 h. The “doxorubicin in the heart at 0.5 h” value in series [6] (0.5 h post injection) is listed as 10 % of injected dose (i.d.)/g tissue. Also, the “doxorubicin in the heart at 24 h” value in [6] (24 h post injection) was 0.77 % of i.d./g tissue. Further, the phospho-p53 result in the series with phospho-p53 is “dose-dependent increase”.
In the case of `CS(=O)(=O)CCNCc1ccc(-c2ccc3ncnc(Nc4ccc(OCc5cccc(F)c5)c(Cl)c4)c3c2)o1` [lapatinib], the “basal phosphorylation of AKT” value in the series with phospho-AKT (pAKT) (no heregulin) is “reduction in basal phosphorylation”. The “heregulin (HRG)-induced phosphorylation of AKT” value with phospho-AKT (pAKT) (10 nM heregulin, 10 min) is “complete inhibition of HRG-induced phosphorylation”. In the series on phospho-ERK (pERK) (no heregulin), the “basal phosphorylation of ERK” value is “reduction in basal phosphorylation”. For the same molecule, the “heregulin (HRG)-induced phosphorylation of ERK” value with phospho-ERK (pERK) (5 nM heregulin, 10 min) is given as “complete inhibition of HRG-induced phosphorylation”.
